Source: ChEMBL document CHEMBL5137065, “Recent Advances with KDM4 Inhibitors and Potential Applications” (J Med Chem, 2022)

Key:
[1] = biological target: T1, Lysine-specific demethylase 4E (Homo sapiens, UniProt B2RXH2)
T1 sequence (B2RXH2 whole entry): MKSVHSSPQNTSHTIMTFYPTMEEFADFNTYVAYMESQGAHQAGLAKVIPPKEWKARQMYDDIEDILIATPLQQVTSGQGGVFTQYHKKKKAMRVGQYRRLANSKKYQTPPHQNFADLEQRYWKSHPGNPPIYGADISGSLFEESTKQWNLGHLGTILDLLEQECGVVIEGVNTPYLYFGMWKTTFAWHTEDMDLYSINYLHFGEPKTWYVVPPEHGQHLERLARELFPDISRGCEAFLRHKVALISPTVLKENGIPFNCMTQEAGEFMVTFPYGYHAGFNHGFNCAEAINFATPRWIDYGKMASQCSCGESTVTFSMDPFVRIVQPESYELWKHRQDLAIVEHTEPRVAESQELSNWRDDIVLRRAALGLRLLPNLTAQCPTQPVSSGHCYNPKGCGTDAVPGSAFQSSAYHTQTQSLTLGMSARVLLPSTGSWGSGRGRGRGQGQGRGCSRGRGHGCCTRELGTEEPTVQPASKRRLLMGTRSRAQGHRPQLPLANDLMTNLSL

LNCaP = assay: Antiproliferative activity against human LNCaP cells measured by Alamarblue assay; format: functional
DU-145 = assay: Antiproliferative activity against human DU-145 cells measured by Alamarblue assay; format: functional
[2] = biological target: T2, Lysine-specific demethylase 4D (Homo sapiens, UniProt Q6B0I6); assay: Inhibition of KDM4D (unknown origin) measured by AlphaLisa-based screening assay
T2 sequence (Q6B0I6 whole entry): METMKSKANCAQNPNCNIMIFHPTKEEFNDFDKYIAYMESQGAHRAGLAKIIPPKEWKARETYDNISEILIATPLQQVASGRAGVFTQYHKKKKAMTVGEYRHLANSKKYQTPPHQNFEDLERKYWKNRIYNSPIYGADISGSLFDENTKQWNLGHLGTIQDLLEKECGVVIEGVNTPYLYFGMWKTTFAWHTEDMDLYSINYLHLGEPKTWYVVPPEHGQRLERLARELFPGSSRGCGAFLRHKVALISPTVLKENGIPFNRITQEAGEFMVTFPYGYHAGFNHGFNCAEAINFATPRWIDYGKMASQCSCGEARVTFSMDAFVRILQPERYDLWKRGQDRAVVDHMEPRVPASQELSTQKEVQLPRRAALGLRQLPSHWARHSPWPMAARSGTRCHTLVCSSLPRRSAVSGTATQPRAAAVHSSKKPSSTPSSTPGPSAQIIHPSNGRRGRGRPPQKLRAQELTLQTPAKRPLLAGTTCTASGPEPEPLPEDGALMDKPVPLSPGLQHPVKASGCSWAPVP

[3] = biological target: T3, Lysine-specific demethylase 4A (Homo sapiens, UniProt O75164); assay: Inhibition of KDM4A (unknown origin) measured by AlphaLisa-based screening assay
T3 sequence (O75164 whole entry): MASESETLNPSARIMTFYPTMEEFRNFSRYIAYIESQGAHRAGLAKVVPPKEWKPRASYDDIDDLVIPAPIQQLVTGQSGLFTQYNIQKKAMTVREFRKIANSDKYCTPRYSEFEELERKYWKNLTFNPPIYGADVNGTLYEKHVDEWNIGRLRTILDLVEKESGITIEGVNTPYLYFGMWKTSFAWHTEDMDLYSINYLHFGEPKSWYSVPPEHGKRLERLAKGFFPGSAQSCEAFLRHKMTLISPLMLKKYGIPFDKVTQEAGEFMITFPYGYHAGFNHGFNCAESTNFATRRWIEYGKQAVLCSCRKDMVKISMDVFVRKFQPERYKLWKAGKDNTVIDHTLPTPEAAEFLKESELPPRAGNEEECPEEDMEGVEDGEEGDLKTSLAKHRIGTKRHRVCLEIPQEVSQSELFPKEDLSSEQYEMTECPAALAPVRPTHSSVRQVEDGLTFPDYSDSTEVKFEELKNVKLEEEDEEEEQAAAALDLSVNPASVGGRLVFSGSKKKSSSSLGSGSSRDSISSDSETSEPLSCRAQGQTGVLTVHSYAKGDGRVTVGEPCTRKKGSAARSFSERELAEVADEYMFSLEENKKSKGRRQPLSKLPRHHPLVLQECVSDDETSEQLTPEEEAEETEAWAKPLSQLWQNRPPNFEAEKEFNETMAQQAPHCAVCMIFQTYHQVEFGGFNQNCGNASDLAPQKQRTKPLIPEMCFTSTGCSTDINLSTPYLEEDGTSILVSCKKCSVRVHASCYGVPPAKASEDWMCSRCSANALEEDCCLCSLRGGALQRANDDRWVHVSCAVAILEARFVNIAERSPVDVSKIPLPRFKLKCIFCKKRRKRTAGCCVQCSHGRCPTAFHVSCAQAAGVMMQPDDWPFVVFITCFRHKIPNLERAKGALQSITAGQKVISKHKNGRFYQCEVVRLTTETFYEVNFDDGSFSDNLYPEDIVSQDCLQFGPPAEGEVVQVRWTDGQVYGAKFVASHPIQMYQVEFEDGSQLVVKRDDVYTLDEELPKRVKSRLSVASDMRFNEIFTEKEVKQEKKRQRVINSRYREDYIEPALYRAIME

[4] = biological target: T4, Lysine-specific demethylase 4C (Homo sapiens, UniProt Q9H3R0); assay: Inhibition of KDM4C (unknown origin) using H3K9me3 as substrate and measured by LANCE TR-FRET assay
T4 sequence (Q9H3R0 whole entry): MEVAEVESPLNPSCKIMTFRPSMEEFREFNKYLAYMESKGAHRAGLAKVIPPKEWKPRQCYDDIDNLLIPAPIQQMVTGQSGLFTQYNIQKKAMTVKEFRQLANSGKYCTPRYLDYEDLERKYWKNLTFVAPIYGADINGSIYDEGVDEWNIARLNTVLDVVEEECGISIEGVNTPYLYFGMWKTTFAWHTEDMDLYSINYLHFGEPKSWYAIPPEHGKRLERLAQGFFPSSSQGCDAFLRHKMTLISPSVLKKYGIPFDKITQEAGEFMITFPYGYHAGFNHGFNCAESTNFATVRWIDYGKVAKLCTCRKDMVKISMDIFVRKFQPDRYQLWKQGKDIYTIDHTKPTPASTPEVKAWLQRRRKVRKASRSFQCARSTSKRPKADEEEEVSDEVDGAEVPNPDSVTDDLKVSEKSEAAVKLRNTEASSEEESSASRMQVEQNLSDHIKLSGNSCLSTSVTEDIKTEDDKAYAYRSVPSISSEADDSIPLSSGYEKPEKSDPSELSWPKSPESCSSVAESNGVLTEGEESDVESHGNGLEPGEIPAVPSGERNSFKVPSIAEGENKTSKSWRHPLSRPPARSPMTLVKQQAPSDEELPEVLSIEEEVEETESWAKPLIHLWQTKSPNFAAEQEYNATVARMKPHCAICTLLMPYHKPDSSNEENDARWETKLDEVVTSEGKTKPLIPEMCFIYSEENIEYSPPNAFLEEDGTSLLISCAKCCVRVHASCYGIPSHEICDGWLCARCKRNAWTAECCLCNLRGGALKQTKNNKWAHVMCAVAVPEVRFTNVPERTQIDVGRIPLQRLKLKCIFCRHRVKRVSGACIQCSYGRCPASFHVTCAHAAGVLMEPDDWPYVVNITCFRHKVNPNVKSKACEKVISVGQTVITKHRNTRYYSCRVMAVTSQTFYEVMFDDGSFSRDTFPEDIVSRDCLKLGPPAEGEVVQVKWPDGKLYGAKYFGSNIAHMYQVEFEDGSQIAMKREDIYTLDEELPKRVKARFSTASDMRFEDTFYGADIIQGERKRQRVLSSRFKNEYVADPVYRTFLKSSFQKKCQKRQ

[5] = biological target: T3, Lysine-specific demethylase 4A; assay: Inhibition of recombinant HQ5-Halo-tagged KDM4A tudor domain (unknown origin) measured by fluorescence polarization assay
[6] = biological target: T3, Lysine-specific demethylase 4A; assay: Inhibition of human KDM4A (1 to 350 residues) measured by ELISA assay
[7] = biological target: T5, Lysine-specific demethylase 4B (Homo sapiens, UniProt O94953); assay: Inhibition of KDM4B (unknown origin) measured by ELISA assay
T5 sequence (O94953 whole entry): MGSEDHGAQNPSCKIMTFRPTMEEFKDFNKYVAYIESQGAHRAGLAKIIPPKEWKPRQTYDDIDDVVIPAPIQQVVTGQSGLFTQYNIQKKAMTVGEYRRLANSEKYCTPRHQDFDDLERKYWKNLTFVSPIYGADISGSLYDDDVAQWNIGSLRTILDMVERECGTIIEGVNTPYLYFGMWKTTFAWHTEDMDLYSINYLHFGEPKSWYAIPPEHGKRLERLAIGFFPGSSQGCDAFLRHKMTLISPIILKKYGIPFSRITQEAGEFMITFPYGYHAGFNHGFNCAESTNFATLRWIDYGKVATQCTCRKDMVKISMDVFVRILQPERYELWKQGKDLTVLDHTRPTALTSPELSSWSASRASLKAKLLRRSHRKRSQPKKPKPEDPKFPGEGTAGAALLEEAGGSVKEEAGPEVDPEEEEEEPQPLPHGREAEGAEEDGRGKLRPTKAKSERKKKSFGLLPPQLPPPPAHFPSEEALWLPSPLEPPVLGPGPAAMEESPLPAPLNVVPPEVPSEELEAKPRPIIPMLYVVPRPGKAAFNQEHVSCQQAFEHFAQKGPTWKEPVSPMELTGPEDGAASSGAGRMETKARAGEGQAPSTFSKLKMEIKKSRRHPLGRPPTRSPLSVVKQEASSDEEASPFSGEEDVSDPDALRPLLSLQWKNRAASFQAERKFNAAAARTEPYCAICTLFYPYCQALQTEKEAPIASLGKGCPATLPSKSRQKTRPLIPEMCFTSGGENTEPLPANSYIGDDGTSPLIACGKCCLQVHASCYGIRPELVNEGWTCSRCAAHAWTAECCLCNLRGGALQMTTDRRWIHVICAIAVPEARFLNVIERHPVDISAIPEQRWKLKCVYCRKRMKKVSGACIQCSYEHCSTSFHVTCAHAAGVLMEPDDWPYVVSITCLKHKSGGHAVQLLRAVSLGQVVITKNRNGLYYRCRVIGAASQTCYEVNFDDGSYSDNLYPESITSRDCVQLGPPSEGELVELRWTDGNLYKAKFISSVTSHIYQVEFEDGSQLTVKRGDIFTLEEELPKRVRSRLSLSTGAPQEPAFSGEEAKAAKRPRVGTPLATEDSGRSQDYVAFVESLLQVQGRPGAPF

KYSE-150 cell line = assay: Growth inhibition of human KYSE-150 cells measured after 48 hrs; format: functional
[8] = Inhibition of KDM4 in human KYSE-150 cells assessed as induction of H3K9me3 accumulation measured by immunostaining method; format: cell-based, KYSE-150 cell line
[9] = Inhibition of KDM4 in human MCF7 cells assessed as induction of H3K9me3 accumulation measured by immunostaining method; format: cell-based
[10] = biological target: T5, Lysine-specific demethylase 4B; assay: Inhibition of GST-tagged KDM4B (unknown origin) using H3K9(me3)-biotin peptide as substrate incubated for 30 mins and measured after 15 mins by TR-FRET assay
[11] = Antiproliferative activity against human neuroblastoma cells after 3 days by PrestoBlue assay; format: functional, cell-based; details: Neuroblastoma cell, 72 h
[12] = Lipophilicity, logD of compound at pH 7.4 by Chromatography; format: physicochemical; details: buffer
[13] = biological target: T3, Lysine-specific demethylase 4A; assay: Inhibition of KDM4A (unknown origin) using H3K9me3 as substrate and measured by LANCE TR-FRET assay
[14] = biological target: T5, Lysine-specific demethylase 4B; assay: Inhibition of KDM4B (unknown origin) using H3K9me3 as substrate and measured by LANCE TR-FRET assay
[15] = biological target: T2, Lysine-specific demethylase 4D; assay: Inhibition of KDM4D (unknown origin) using H3K9me3 as substrate and measured by LANCE TR-FRET assay
[16] = biological target: T4, Lysine-specific demethylase 4C; assay: Inhibition of N-terminal GST-tagged human KDM4C (2 to 372 residues) expressed in baculovirus-infected Sf9 cells measured by high-throughput mass spectrometry assay
[17] = biological target: T4, Lysine-specific demethylase 4C; assay: Inhibition of KDM4C (unknown origin) using H3K9me3 as substrate and measured by antibody-based assay
[18] = Inhibition of KDM4 (unknown origin) measured by ESI-TOF MS assay; set-up: species or system Homo sapiens

`CC(/C=C/C(=O)NO)=C\[C@@H](C)C(=O)c1ccc(N(C)C)cc1` [TRICHOSTATIN] gave an IC50 [1] of 28.4 µM.

`Cc1nn(-c2nc3ccccc3[nH]2)c(O)c1-c1ccccc1` gave a GI50 (LNCaP) of 8 µM and a GI50 (DU-145) of 8 µM.

`CC(C)(C)OC(=O)C[C@@H]1CCN(C(c2ccc(-c3ccncc3)cc2)c2cc3c(cc2O)OCO3)C1` (stereo partly drawn) showed an IC50 [2] of 0.023 µM and an IC50 [3] of over 100 µM.

Compound `CNc1cnccc1C(=O)O` has an IC50 [4] of 1.4 µM.

`CCCCc1oc2ccccc2c1C(=O)c1cc(I)c(OCCN)c(I)c1` gave an IC50 [5] of 26 µM.

Work on `Clc1ccc(N/N=C(\c2ccccc2)c2ccccn2)nc1` yielded an IC50 [6] of 0.29 µM and an IC50 [7] of 0.29 µM.

Compound `COC(=O)/C=C/C(=O)N(O)CCCCNCc1ccc(COC(=O)Nc2cccc3ccccc23)cc1` has a GI50 (KYSE-150 cell line) of 5.1 µM, an EC50 [8] of 8.6 µM and an EC50 [9] of 6.3 µM.

Work on `Cc1cc(C2CCCCC2)n(O)c(=O)c1` [CICLOPIROX] yielded an IC50 [10] of 3.8 µM and an IC50 [11] of 0.2 µM.

Compound `O=C(O)c1ccncc1NCc1ccco1` has a chromatographic logD [12] of 0.1.

`CN(c1ccccc1)c1ccc2c(c1)CCC[C@H]2CNc1cnccc1C(=O)O` showed an IC50 [13] of 0.035 µM, an IC50 [14] of 0.035 µM and an IC50 [15] of 0.035 µM.

`O=c1[nH]c(Oc2cnn(Cc3ccccc3)c2)nc2cnccc12` gave a chromatographic logD [12] of 1.8.

In the case of `O=C(O)c1ccnc(-c2ccc[nH]2)c1`, the Ki [16] is reported as 0.031 µM.

Work on `CC(C)C(=O)NC(c1ccco1)c1ccc2cccnc2c1O` (stereo not drawn) yielded an IC50 [17] of 30 µM.

`O=C(O)/C=C/C(=O)N(O)CCCCNCc1ccc(COC(=O)Nc2cccc3ccccc23)cc1` showed an IC50 [18] of 4.3 µM.

In the case of `CCCCc1oc2ccccc2c1C(=O)c1cc(I)c(OCC[N+](C)(C)C)c(I)c1`, the IC50 [5] is reported as 26 µM.
